Test results as given in ChEMBL document CHEMBL3885881, “DrugMatrix”.

Species on record: Rattus norvegicus
Assay: DrugMatrix - Regimen: Daily Repeat
Assay type: toxicity, organism-based, Sprague-Dawley
Parameters: regimen Daily Repeat, gender Male, age 6-8 weeks
Conditions: in vivo, iv, vehicle 100 % SALINE; for ABSOLUTE BASOPHIL / ABSOLUTE EOSINOPHIL / ABSOLUTE LYMPHOCYTE / ABSOLUTE MONOCYTE / ABSOLUTE SEGMENTED NEUTROPHIL / BASOPHIL / EOSINOPHIL / ERYTHROCYTE COUNT / HEMATOCRIT / HEMOGLOBIN / LYMPHOCYTE / MEAN CORPUSCULAR HEMOGLOBIN / MEAN CORPUSCULAR HEMOGLOBIN CONCENTRATION / MONOCYTE / NEUTROPHIL / NUCLEATED RED BLOOD CELLS / PLATELET COUNT: tissue Blood; for ALANINE AMINOTRANSFERASE / ALBUMIN / ALKALINE PHOSPHATASE / ASPARTATE AMINOTRANSFERASE / BLOOD UREA NITROGEN / CARBON DIOXIDE / CHLORIDE / CHOLESTEROL / CREATINE PHOSPHOKINASE / CREATININE / GLUCOSE / LIPASE / PHOSPHORUS / POTASSIUM / SODIUM / TOTAL BILIRUBIN / TOTAL PROTEIN / URIC ACID: tissue Plasma
[1] = 0 mg/kg, 72 h, dose level Control, time 3 day
[2] = 0 mg/kg, 120 h, dose level Control, time 5 day
[3] = 5 mg/kg, 72 h, dose level High, time 3 day

With `CCc1c2c(nc3ccc(OC(=O)N4CCC(N5CCCCC5)CC4)cc13)-c1cc3c(c(=O)n1C2)COC(=O)[C@]3(O)CC` [IRINOTECAN] the “ABSOLUTE BASOPHIL” value [1] was 0 CELLS/uL, the “ABSOLUTE EOSINOPHIL” value [1] was 23.17 CELLS/uL and the “ABSOLUTE LYMPHOCYTE” value [1] was 12448.83 CELLS/uL. The “ABSOLUTE MONOCYTE” value [1] was 259.5 CELLS/uL, the “ABSOLUTE SEGMENTED NEUTROPHIL” value [1] was 1635.17 CELLS/uL and the BASOPHIL [1] was 0%. The EOSINOPHIL [1] was 0.17%, the “ERYTHROCYTE COUNT” value [1] was 5.35 x10E6/uL and the HEMATOCRIT [1] was 34.85%. For the same molecule, the HEMOGLOBIN [1] was 13.72 G/DL, the LYMPHOCYTE [1] was 86.5% and the “MEAN CORPUSCULAR HEMOGLOBIN” value [1] was 25.67 pg. The “MEAN CORPUSCULAR HEMOGLOBIN CONCENTRATION” value [1] was 39.38 G/DL, the MONOCYTE [1] was 1.83% and the NEUTROPHIL [1] was 11.5%. The “NUCLEATED RED BLOOD CELLS” value [1] was 0 /100WBC, the “PLATELET COUNT” value [1] was 1248.67 x10E3/uL and the “ALANINE AMINOTRANSFERASE” value [1] was 56.5 u/L. The ALBUMIN [1] was 4.27 G/DL, the “ALKALINE PHOSPHATASE” value [1] was 334 u/L and the “ASPARTATE AMINOTRANSFERASE” value [1] was 85.5 u/L. For the same molecule, the “BLOOD UREA NITROGEN” value [1] was 16.33 mg/dL, the “CARBON DIOXIDE” value [1] was 26.5 mmol/L and the CHLORIDE [1] was 100.17 MEQ/L. For the same molecule, the CHOLESTEROL [1] was 70.33 mg/dL, the “CREATINE PHOSPHOKINASE” value [1] was 339.5 u/L and the CREATININE [1] was 0.18 mg/dL. For the same molecule, the GLUCOSE [1] was 155.17 mg/dL, the LIPASE [1] was 9.5 u/L and the PHOSPHORUS [1] was 13.55 mg/dL. For the same molecule, the POTASSIUM [1] was 6.68 MEQ/L, the SODIUM [1] was 143.87 MEQ/L and the “TOTAL BILIRUBIN” value [1] was 0.2 mg/dL. For the same molecule, the “TOTAL PROTEIN” value [1] was 5.98 G/DL, the “URIC ACID” value [1] was 1.53 mg/dL and the “ABSOLUTE BASOPHIL” value [2] was 0 CELLS/uL. The “ABSOLUTE EOSINOPHIL” value [2] was 16.17 CELLS/uL, the “ABSOLUTE LYMPHOCYTE” value [2] was 10653.67 CELLS/uL and the “ABSOLUTE MONOCYTE” value [2] was 17.17 CELLS/uL. For the same molecule, the “ABSOLUTE SEGMENTED NEUTROPHIL” value [2] was 746.33 CELLS/uL, the BASOPHIL [2] was 0% and the EOSINOPHIL [2] was 0.17%. The “ERYTHROCYTE COUNT” value [2] was 5.88 x10E6/uL, the HEMATOCRIT [2] was 36.68% and the HEMOGLOBIN [2] was 14.6 G/DL. For the same molecule, the LYMPHOCYTE [2] was 91.83%, the “MEAN CORPUSCULAR HEMOGLOBIN” value [2] was 24.85 pg and the “MEAN CORPUSCULAR HEMOGLOBIN CONCENTRATION” value [2] was 39.8 G/DL. For the same molecule, the MONOCYTE [2] was 0.17%, the NEUTROPHIL [2] was 7.83% and the “NUCLEATED RED BLOOD CELLS” value [2] was 0 /100WBC. The “PLATELET COUNT” value [2] was 1219.5 x10E3/uL, the “ALANINE AMINOTRANSFERASE” value [2] was 45.5 u/L and the ALBUMIN [2] was 4.23 G/DL. For the same molecule, the “ALKALINE PHOSPHATASE” value [2] was 330.17 u/L, the “ASPARTATE AMINOTRANSFERASE” value [2] was 93.33 u/L and the “BLOOD UREA NITROGEN” value [2] was 18 mg/dL. The “CARBON DIOXIDE” value [2] was 25.5 mmol/L, the CHLORIDE [2] was 96.33 MEQ/L and the CHOLESTEROL [2] was 73.5 mg/dL. The “CREATINE PHOSPHOKINASE” value [2] was 434 u/L, the CREATININE [2] was 0.2 mg/dL and the GLUCOSE [2] was 148.83 mg/dL. It also gave an LIPASE [2] of 10 u/L, a PHOSPHORUS [2] of 12.63 mg/dL and a POTASSIUM [2] of 6.66 MEQ/L. The SODIUM [2] was 139.78 MEQ/L, the “TOTAL BILIRUBIN” value [2] was 0.15 mg/dL and the “TOTAL PROTEIN” value [2] was 6.1 G/DL. The “URIC ACID” value [2] was 2.02 mg/dL, the “ABSOLUTE BASOPHIL” value [3] was 0 CELLS/uL and the “ABSOLUTE EOSINOPHIL” value [3] was 80.67 CELLS/uL. The “ABSOLUTE LYMPHOCYTE” value [3] was 9024 CELLS/uL, the “ABSOLUTE MONOCYTE” value [3] was 170 CELLS/uL and the “ABSOLUTE SEGMENTED NEUTROPHIL” value [3] was 658.67 CELLS/uL. For the same molecule, the BASOPHIL [3] was 0%, the EOSINOPHIL [3] was 0.67% and the “ERYTHROCYTE COUNT” value [3] was 5.4 x10E6/uL. It also gave an HEMATOCRIT [3] of 34.93%, an HEMOGLOBIN [3] of 13.9 G/DL and an LYMPHOCYTE [3] of 90.67%. For the same molecule, the “MEAN CORPUSCULAR HEMOGLOBIN” value [3] was 25.73 pg, the “MEAN CORPUSCULAR HEMOGLOBIN CONCENTRATION” value [3] was 39.77 G/DL and the MONOCYTE [3] was 1.67%. For the same molecule, the NEUTROPHIL [3] was 7%, the “NUCLEATED RED BLOOD CELLS” value [3] was 0 /100WBC and the “PLATELET COUNT” value [3] was 1386.67 x10E3/uL. For the same molecule, the “ALANINE AMINOTRANSFERASE” value [3] was 49 u/L, the ALBUMIN [3] was 4.27 G/DL and the “ALKALINE PHOSPHATASE” value [3] was 402.67 u/L. The “ASPARTATE AMINOTRANSFERASE” value [3] was 93 u/L, the “BLOOD UREA NITROGEN” value [3] was 14.67 mg/dL and the “CARBON DIOXIDE” value [3] was 26.67 mmol/L. For the same molecule, the CHLORIDE [3] was 102.67 MEQ/L, the CHOLESTEROL [3] was 65 mg/dL and the “CREATINE PHOSPHOKINASE” value [3] was 421.33 u/L. It also gave a CREATININE [3] of 0.18 mg/dL, a GLUCOSE [3] of 152.67 mg/dL and an LIPASE [3] of 10 u/L. It also gave a PHOSPHORUS [3] of 14.3 mg/dL, a POTASSIUM [3] of 6.6 MEQ/L and an SODIUM [3] of 145.83 MEQ/L. The “TOTAL BILIRUBIN” value [3] was 0.17 mg/dL and the “TOTAL PROTEIN” value [3] was 5.8 G/DL.
